# Key:
# [1] = target: T1, PDPK1 (Homo sapiens, UniProt O15530); experiment: MALDI MS of intact PDPK1 incubated with compound; format: binding; design: purchased Millipore 14-452; settings: for Number of Modifications on Whole Protein: PDPK1 whole protein, MS
# T1 sequence (O15530 1-556): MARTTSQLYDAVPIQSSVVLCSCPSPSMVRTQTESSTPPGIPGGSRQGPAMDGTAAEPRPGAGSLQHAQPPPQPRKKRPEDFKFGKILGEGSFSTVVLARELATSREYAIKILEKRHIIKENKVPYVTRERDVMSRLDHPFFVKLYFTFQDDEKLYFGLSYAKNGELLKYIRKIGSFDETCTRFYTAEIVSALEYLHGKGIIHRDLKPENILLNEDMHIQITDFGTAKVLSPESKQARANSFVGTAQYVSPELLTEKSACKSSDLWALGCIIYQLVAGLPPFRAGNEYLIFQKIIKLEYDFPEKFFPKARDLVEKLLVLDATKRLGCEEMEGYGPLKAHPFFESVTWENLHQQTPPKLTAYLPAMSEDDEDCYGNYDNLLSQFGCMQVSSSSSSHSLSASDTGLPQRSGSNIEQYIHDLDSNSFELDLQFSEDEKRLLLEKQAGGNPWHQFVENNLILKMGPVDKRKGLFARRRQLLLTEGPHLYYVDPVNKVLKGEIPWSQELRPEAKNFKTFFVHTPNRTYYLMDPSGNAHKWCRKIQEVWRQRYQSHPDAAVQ
# Description: (§1) Intact PDPK1 was incubated for 3 hr at a 10-fold excess of compound XI-27 to protein. 3 μL aliquots of the samples were diluted with 10 μL of 0.1% TFA prior to micro C4 Ziptipping directly onto the MALDI target plate using sinapinic acid as the desorption matrix (10 mg/mL in 0.1% TFA:Acetonitrile 50:50).
# as §1, with “XI-21” for “XI-27”
# For example, Table 7 lists non-limiting examples of compounds that modify PDPK1 whole protein, the number of modifications per protein and the lysines modified within the protein. […] Also, the lysine modified in PDPK-1 by XI-27, XI-26, XI-22, and XI-21 are not the same for each compound. Without wishing to be bound to any particular theory, the position of the warhead, as presented by the scaffold and tether to the lysines in the binding site, effects different results on the modification of the different lysines in the binding site of PDPK-1.
# [2] = target: T1, PDPK1; experiment: PDK1-OMNIA kinase assay (ST28-Sox peptide); format: biochemical; design: purchased Invitrogen, BPS or SignalChem P3001 (Invitrogen), 40080 (BPS), P14-10H (SignalChem); settings: PDPK1 enzyme pre-incubated 30 min at 25° C. with compound; [ATP]=5 μM; ST28-Sox peptide substrate; read-out: Inhibition/Modification Designation (IC50, PDK1-OMNIA)
# Description: Briefly, a 10× stock of PDPK1 enzyme from Invitrogen (P3001) or BPS (40080) or SignalChem (P14-10H), 1.13×ATP (AS001A) and ST28-Sox peptide substrate (KNZ1281C) were prepared in 1× kinase reaction buffer consisting of 20 mM Tris, pH 7.5, 5 mM MgCl2, 1 mM EGTA, 5 mM β-glycerophosphate, 5% glycerol (10× stock, KB002A) and 0.2 mM DTT (DS001A). 5 μL of enzyme were pre-incubated in a Corning (#3574) 384-well, white, non-binding surface microtiter plate (Corning, N.Y.) for 30 min at 25° C. with a 0.5 μL volume of 50% DMSO and serially diluted compounds prepared in 50% DMSO. Kinase reactions were started with the addition of 45 […] of the ST28-Sox peptide substrate and monitored every 71 seconds for 30-60 minutes at λex360/λem485 in a Synergy4 plate reader from BioTek (Winooski, Vt.). At the conclusion of each assay, progress curves from each well were examined for linear reaction kinetics and fit statistics (R^2, 95% confidence interval, absolute sum of squares). Post-lag velocity (+10 minutes to 20+ minutes) from each reaction was estimated from the slope of a plot of relative fluorescence units vs time (minutes) and normalized to the no enzyme and no inhibitor control groups for % Inhibition. The resulting inhibition values were then plotted against inhibitor concentration to estimate IC50 from log [Inhibitor] vs Response, Variable Slope model in GraphPad Prism from GraphPad Software (San Diego, Calif.).
# [Reagent] used in provisional protocol(s): Invitrogen—[PDPK1]=5-10 nM, [ATP]=5 μM and [ST28-Sox]=5 μM or 10 μM (ATP KMapp=4-6 μM); BPS—[PDPK1]=10-15 nM, [ATP]=5 μM and [ST28-Sox]=10 μM (ATP KMapp=3-5 μM); SignalChem—[PDPK1]=5-10 nM, [ATP]=5 μM and [ST28-Sox]=5 μM or 10 μM (ATP KMapp ND)
# [3] = target: T2, recombinant human cIAP-1 (Homo sapiens, UniProt Q13490); experiment: Fluorescence polarization competition binding assay, cIAP-1; settings: c-IAP-1, 3 h
# T2 construct: purchased R&D Systems 818-IA
# T2 sequence (Q13490 whole entry): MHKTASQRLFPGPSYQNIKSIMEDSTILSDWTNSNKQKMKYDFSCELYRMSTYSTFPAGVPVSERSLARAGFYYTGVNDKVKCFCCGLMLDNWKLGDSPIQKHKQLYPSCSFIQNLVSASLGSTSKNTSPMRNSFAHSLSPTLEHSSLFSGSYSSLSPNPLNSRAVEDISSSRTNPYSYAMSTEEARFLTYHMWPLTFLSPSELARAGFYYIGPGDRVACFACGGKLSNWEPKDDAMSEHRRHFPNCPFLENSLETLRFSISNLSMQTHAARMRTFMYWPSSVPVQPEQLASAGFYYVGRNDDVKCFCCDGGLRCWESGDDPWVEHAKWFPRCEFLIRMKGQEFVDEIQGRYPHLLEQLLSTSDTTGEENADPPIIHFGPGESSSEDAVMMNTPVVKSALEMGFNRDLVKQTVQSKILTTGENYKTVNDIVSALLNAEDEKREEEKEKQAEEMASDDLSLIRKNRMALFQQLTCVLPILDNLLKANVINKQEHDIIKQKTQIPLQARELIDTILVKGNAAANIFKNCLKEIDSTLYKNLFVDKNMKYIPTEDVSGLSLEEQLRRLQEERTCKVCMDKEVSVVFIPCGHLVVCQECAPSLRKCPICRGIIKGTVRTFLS
# Description: (§2) Homogeneous, Fluorescence Polarization, Competition Binding Assay Protocol for Affinity Assessment of Compound Binding to XIAP, cIAP-1 and ML-IAPβ BIR3 Domains
# (§3) 1× stocks of recombinant human XIAP; BIR3 domain (895-XB), recombinant human cIAP-1 (818-IA) or recombinant human ML-IAPβ (818-IA) from R&D Systems and Fluorescence Polarization (FP) assay tracer (Atto-647 tagged IAP inhibitor probe compound) were prepared in assay buffer consisting of 25 mM Tris-HCL, pH 7.5 (Sigma), 10 mM […] (Sigma), 1 mM DTT (Fluka) and 0.005% TritonX-100 (Pierce). While IAP protein and tracer equilibrated at ambient temp in the dark (30-60 min), 100× stocks of test compound were prepared in 50% DMSO:H2O, serially diluted and spotted (0.5 µL/well) in duplicate wells of a 384-well, flat bottom, polypropylene, black assay plate (Greiner #781209). […] Competition binding between test compounds and assay tracer was initiated by the addition of 50 µL/well of pre-equilibrated IAP protein and assay tracer. Displacement of the assay tracer was measured in a Synergy plate reader from BioTek (Winooski, Vt.) at λex620/λem680 through a 660 nm half-sized dicroich mirror and S/P polarizing filters every 30 min for 3 hr. (See Huang, X., Journal of Biomolecular Screening 8, 2003). The resulting compound dose response data were fit to a one-site binding Ki model in GraphPad Prism from GraphPad Software (San Diego, Calif.).
# [4] = target: T3, recombinant human ML-IAPβ (Homo sapiens, UniProt Q96CA5); experiment: Fluorescence polarization competition binding assay, ML-IAPβ; settings: ML-IAP, 2 h
# T3 construct: purchased R&D Systems 818-IA
# T3 sequence (Q96CA5 1-280 isoform Q96CA5-2): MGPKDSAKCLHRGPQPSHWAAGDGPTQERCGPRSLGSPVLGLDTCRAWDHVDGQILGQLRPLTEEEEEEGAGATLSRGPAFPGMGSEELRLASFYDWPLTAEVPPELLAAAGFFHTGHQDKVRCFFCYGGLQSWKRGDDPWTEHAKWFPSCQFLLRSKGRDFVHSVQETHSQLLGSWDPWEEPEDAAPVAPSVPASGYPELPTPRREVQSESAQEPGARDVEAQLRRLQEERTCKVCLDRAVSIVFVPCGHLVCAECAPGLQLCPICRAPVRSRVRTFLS
# Description: as §2, §3
# [5] = target: T4, p120γ (PI3Kγ) (Homo sapiens, UniProt P48736); experiment: HTRF assay, p120γ; format: biochemical; settings: PI3Kγ; read-out: PI3Kγ HTRF IC50 Inhibition Designation
# T4 construct: purchased BPS Bioscience 40625
# T4 sequence (P48736 whole entry): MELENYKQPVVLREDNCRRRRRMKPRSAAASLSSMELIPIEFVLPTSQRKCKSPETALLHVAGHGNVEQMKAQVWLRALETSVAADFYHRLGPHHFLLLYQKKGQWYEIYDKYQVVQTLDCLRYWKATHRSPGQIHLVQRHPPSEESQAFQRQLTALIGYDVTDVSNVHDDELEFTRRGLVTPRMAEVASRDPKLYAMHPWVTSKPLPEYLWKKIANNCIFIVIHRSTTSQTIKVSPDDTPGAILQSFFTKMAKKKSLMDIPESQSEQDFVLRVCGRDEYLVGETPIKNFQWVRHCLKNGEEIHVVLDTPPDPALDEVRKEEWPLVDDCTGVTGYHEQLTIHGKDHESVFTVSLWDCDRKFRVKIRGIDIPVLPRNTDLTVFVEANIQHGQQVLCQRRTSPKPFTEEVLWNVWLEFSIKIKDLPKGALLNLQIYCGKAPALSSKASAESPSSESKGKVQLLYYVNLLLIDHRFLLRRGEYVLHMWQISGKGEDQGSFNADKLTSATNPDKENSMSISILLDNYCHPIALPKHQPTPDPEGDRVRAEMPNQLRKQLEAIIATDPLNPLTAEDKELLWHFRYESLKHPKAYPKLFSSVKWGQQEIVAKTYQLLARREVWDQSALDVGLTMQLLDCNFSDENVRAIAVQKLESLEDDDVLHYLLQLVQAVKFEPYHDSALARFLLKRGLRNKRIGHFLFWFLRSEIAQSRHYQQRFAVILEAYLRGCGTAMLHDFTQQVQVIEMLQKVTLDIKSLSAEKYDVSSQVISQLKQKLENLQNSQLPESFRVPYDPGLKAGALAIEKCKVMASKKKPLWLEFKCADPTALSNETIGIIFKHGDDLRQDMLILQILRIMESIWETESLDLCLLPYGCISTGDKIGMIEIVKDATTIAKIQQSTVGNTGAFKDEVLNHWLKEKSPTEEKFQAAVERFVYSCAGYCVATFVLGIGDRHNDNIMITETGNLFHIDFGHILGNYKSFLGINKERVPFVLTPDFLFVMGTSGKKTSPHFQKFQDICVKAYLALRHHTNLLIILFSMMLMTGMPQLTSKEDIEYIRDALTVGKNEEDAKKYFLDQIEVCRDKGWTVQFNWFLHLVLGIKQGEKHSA
# How it was run: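 End-point competition-binding HTRF with 1-4 nM enzyme and 10 μM di-C8-PIP2, pre-incubated with compound 30 min at 25° C, then 50 μM ATP for 15-30 min at 25° C. HTRF ratio (665/620 nm) gave % inhibition; IC50 from variable-slope log-dose fit.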
# [6] = system: HCT116; experiment: HCT116-WB assay; format: cell-based; settings: Homo sapiens, HCT-116; read-out: HCT116-WB Inhibition Designation
# [7] = target: T5, p110α/p85α (PI3Kα) (Homo sapiens, UniProt P42336); experiment: HTRF assay, p110α/p85α; format: biochemical; settings: read-out: PI3Kα-HTRF-IC50 nM Inhibition Designation
# T5 construct: purchased BPS Bioscience or Millipore 40620 (BPS Bioscience) or 14-602 (Millipore)
# T5 sequence (P42336 whole entry): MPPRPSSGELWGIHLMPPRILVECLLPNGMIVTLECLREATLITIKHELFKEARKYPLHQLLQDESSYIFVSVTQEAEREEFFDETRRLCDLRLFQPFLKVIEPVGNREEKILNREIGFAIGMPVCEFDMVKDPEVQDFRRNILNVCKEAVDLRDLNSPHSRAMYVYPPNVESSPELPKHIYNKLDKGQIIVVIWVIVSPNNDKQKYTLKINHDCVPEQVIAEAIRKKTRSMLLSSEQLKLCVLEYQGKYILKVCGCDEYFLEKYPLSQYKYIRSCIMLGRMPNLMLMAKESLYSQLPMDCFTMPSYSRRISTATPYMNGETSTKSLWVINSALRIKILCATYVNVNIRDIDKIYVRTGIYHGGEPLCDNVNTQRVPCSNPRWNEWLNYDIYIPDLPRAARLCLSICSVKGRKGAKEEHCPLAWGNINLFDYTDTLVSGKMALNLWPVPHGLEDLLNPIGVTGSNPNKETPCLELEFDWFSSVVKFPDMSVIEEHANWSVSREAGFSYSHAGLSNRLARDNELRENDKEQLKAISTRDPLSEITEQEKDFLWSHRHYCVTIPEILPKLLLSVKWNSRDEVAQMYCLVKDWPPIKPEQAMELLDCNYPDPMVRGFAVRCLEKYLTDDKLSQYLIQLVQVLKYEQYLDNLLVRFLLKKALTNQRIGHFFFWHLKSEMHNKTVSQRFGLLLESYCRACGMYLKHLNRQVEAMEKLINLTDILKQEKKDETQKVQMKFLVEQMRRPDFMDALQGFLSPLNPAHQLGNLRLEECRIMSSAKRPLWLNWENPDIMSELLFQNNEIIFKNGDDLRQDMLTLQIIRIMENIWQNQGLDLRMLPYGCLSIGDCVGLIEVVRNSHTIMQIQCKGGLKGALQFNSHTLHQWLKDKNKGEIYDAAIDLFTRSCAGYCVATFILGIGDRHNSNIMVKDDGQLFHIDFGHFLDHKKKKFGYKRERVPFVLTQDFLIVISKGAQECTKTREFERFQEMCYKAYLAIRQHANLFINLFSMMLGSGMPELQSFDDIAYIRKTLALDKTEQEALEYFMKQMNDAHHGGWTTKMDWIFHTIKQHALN
# T5 sequence (P27986 whole entry partner): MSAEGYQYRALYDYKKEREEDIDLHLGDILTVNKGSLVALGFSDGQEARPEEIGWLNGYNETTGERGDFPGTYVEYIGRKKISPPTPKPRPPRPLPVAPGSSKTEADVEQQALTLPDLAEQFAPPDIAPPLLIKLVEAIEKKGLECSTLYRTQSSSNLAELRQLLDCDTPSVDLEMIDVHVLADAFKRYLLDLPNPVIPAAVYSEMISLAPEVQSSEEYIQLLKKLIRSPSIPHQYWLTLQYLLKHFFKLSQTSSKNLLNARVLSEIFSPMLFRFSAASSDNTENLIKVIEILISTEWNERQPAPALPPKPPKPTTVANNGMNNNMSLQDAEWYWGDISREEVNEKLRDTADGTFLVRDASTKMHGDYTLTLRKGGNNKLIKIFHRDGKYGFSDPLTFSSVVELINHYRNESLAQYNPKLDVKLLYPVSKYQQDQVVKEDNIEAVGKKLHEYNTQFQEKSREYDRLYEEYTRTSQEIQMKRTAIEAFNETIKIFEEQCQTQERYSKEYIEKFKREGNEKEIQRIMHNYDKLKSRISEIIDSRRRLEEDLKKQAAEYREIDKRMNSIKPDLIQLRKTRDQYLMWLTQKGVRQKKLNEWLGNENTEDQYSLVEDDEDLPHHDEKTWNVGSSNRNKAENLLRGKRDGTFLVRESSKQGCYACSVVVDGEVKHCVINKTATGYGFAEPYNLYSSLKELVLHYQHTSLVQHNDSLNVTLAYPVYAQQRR
# Description: HTRF Assay Protocol for Potency Assessment Against the Active Form of p110α/p85α:
# The mechanics of the assay platform are best described by the vendor (Millipore, Billerica, Mass.) on their website at the following URL: http://www.millipore.com/coa/tech1/74jt4z.
# Briefly, Stop solution (Stop A, #33-007 and Stop B, #33-009; 3:1 ratio) and Detection Mix (DMC, #33-015 with DMA, #33-011 and DMB, #33-013; 18:1:1 ratio) were prepared as recommended by the manufacturer ˜2 hrs prior to use. […] Lipid kinase reactions were started with the addition of 5 μL of ATP solution, mixed for 15 sec on a rotary plate shaker and incubated for 15-30 minutes at 25° C. Next, reactions were stopped with a 5 μL addition of Stop solution followed by a 5 μL volume of Detection Mix. […] At the conclusion of each assay, the HTRF ratio from fluorescence emission values for each well was calculated and % Inhibition determined from averaged controls wells. % Inhibition values for each compound re then plotted against inhibitor concentration to estimate IC50 from log [Inhibitor] vs Response, Variable Slope model in GraphPad Prism from GraphPad Software (San Diego, Calif.).
structure (smiles),measurement,setting,value
CC(C)(C(N)=O)C(=O)NCCCNc1nc(Nc2cccc(NC(=O)CNC(=O)C3CCC(=O)S3)c2)ncc1Br (centres unmarked) [XI-22],Number of Modifications on Whole Protein,[1],2
same,IC50,[2],< 10 nM
C=CC(=O)Nc1cccc(Nc2ncc(Br)c(NCCCNC(=O)C(C)(C)C(N)=O)n2)c1 [XI-53],Number of Modifications on Whole Protein,[1],1
CC(C)(C(N)=O)C(=O)NCCCNc1nc(Nc2cccc(NC(=O)C3CCC(=O)S3)c2)ncc1Br (centres unmarked) [XI-21],mass shift of PDPK1 as percent,"[1]; 3 hr, 10-fold excess",175%
same,modification of PDPK1,"[1]; 3 hr, 10-fold excess",complete multiple modification
same,mass shift of PDPK1,"[1]; 3 hr, 10-fold excess of compound to protein","1,009 Da"
same,Number of Modifications on Whole Protein,[1],2
same,IC50,[2],< 10 nM
C=CS(=O)(=O)Nc1cccc(CNC(=O)[C@@H]2CC[C@@H]3CCCC[C@H](NC(=O)[C@H](C)NC)C(=O)N32)c1 [VII-23],Ki,[3],< 10 nM
same,Ki,[4],10 to 100 nM
CC(C)Oc1c(N(C)Cc2cc3nc(-c4cccc(O)c4)nc(N4CCOCC4)c3s2)c(=O)c1=O [XXII-11],IC50,[5],100 to 1000 nM
same,IC50,[6],10 to 100 nM
same,IC50,[7],10 to 100 nM
CN[C@@H](C)C(=O)N[C@H]1CCCC[C@H]2CC[C@@H](C(=O)NCc3cccc(COC(=O)CC(C)=O)c3)N2C1=O [VII-29],Ki,[3],1000 to 10000 nM
same,Ki,[4],10 to 100 nM
CN[C@@H](C)C(=O)N[C@H]1CCCC[C@H]2CC[C@@H](C(=O)N[C@@H]3CCCc4c(NC(=O)C5CCC(=O)O5)cccc43)N2C1=O (some centres unmarked) [VII-30],Ki,[3],10 to 100 nM
same,Ki,[4],10 to 100 nM
O=C1CC[C@H](C(=O)N2CC=C(c3cc4nc(-c5cccc(O)c5)nc(N5CCOCC5)c4s3)CC2)O1 [XXII-2],IC50,[5],100 to 1000 nM
same,IC50,[6],100 to 1000 nM
same,IC50,[7],10 to 100 nM
